Columns and labels:
IGROV1 CR cells = test: SRB cell viability, synergy with cisplatin (combination index); type: cell-based, human
Protocol: Given that And-1 phosphorylation was positively correlated with cisplatin resistance in OC according the Examples above, it was next determined whether And-1 phosphorylation contributes to cell survival in response to cisplatin. The cell viability to cisplatin in IGROV1, OV90 and mice ID80 cells overexpressed with FLAG-And-1-WT, FLAG-And-1-T826A and phosphomimetic FLAG-And-1-T826E was examined. In brief, cells were seeded in 96-well plate at a density of 3,000-5,000 cells per well and treated with indicated reagents for different concentration. Three days after treatment, the cell viability was measured by Sulforhodamine B (SRB) assay. The IC50 values and CI index were further determined by compusyn software. Every experiment was done in triplicate and repeated three times. […] To confirm And-1 was the primary target of ATR to promote platinum-resistance, the sensitivity of IGROV1 cells to cisplatin was examined using genetic analyses.
To determine whether And-1 inhibitors can overcome cisplatin resistance in OC cells, the synergy of And-1 inhibitors and cisplatin in IGROV1 CR cells was examined.

And-1 [1] = target: T1, And-1 (Homo sapiens, UniProt O75717); test: cellular thermal shift assay; type: binding; parameters: endogenous in cells; host or cells: IGROV1 CR; settings: cells incubated 8 hours, compared to DMSO
T1 sequence (O75717 1-1129): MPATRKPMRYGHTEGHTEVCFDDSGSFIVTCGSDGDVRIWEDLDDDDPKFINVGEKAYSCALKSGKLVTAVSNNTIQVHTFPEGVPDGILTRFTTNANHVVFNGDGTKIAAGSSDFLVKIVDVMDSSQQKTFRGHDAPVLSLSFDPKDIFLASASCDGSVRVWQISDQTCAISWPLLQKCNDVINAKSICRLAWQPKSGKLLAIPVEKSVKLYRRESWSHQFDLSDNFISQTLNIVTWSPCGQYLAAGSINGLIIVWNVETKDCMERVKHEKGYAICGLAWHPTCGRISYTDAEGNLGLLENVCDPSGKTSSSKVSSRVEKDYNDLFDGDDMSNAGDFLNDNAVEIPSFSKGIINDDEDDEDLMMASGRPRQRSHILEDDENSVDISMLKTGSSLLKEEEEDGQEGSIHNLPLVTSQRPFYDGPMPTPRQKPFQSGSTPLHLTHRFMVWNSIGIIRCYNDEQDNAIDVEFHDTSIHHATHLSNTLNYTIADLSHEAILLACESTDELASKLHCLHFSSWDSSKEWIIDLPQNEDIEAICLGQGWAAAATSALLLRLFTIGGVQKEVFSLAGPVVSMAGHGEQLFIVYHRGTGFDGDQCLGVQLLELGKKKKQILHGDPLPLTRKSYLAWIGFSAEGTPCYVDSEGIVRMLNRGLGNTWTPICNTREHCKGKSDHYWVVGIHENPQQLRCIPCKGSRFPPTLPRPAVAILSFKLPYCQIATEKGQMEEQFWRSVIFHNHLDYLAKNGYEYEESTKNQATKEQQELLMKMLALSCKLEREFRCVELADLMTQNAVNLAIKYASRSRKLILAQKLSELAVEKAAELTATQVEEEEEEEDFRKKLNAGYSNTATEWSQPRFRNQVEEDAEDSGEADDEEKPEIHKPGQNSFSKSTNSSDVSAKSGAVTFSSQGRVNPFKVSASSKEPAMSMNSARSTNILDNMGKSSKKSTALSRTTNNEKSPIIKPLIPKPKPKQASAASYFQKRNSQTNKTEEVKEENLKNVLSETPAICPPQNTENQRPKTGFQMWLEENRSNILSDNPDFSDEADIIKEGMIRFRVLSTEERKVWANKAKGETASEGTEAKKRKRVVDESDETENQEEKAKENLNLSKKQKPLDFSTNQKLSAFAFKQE
Protocol: To explore whether And-1 inhibitors directly bind to And-1, cellular thermal shift assays were performed in which a small molecule binds to a protein resulting in thermal stabilization of the protein. Briefly, cells were incubated with MG132 (10 μM), DHS, CH3, CH10 or DMSO for 8 hours. After washing with ice-cold PBS (suppled with Protease Inhibitor Cocktail), cells were aliquoted into PCR tubes (100 μL each) and then incubated at different temperatures (from 25° C. to 71° C.) for 4 minutes. After the cells were frozen and thawed twice using liquid nitrogen, proteins were isolated from the cells after centrifugation and incubated at 70° C. for 10 minutes for analysis by western blotting.

MCF7 xenograft = type: in vivo, mice
Protocol: (§1) To evaluate the potency of And-1 inhibitors in vivo, IGROV1 or MCF7 cells were subcutaneously implanted into nude mice to form ovarian or breast tumors, respectively. In brief, 5-6 week-old female BALB/c athymic nude mice (CByJ.Cg-Foxn1nu/J, weighting 20-25 grams) were inoculated subcutaneously by injecting the OC cells, cisplatin resistant OC cells or breast cancer cells suspended in 100 μl ice-cold Matrigel/PBS (1:1, V:V; 5×10^6/mouse) into the dorsal flank of each mouse. When the average tumor volume reached 100-150 mm^3, the mice were randomized into subsequent experiment groups. For tumors treated with CH3 only, CH3 was given at 0 mg/kg, 20 mg/kg and 40 mg/kg via intraperitoneal injection twice a week for three weeks. […] The relative tumor volumes were calculated using the formula: a×(b^2)/2, for which a and b represented the longest and shortest diameters, respectively. During the drug treatment, the tumor volume and body weight were measured. Tumor samples were collected 4 days after final administration of the drug.

IGROV1 xenograft = type: in vivo, mice
Protocol: as §1

And-1 [2] = target: T1, And-1; test: fluorescent boron sensor DAHMI staining of live IGROV1 cells; type: cell-based; parameters: endogenous in cells; host or cells: IGROV1 CR
Excerpt: Boron-containing compounds can be visualized using a fluorescent boron sensor DAHMI. To determine the binding specificity of CH3 to And-1, the distribution of CH3 in live cells was examined using DAHMI.

NCI 60 tumor cell lines = NCI 60 tumor cell lines growth assay; type: cell-based
Protocol: To test this hypothesis, inhibition of CH3 on cancer cells was evaluated by using NCI 60 tumor cell lines.

For `OB1OCc2cc(/C=C/c3ccc(Cl)c(Cl)c3)ccc21` [CH3], the “synergy with cisplatin to inhibit cell proliferation (combination index)” value (IGROV1 CR cells) was “significant synergy”, the “thermal stabilization of And-1 protein at higher temperatures” value (And-1 [1]) was “stabilized” and the “And-1 expression in tumor (IHC)” value (MCF7 xenograft; MCF7 xenograft) was “inhibited And-1 expression”. For the same compound, the “apoptosis in tumor (cleaved caspase-3 IHC)” value (MCF7 xenograft; MCF7 xenograft) was “induced apoptosis in tumor”, the tumor growth (MCF7 xenograft; MCF7 xenograft, 20 or 40 mg/kg intraperitoneally, three weeks) was “significantly reduced tumor growth” and the “systemic toxicity (body weight, H&E staining of heart, liver, kidney and lung)” value (MCF7 xenograft; mouse, in vivo) was “systemic toxicity or obvious side effects were not observed”. The “And-1 expression in tumor (IHC)” value (IGROV1 xenograft; IGROV1 xenograft) was “inhibited And-1 expression”, the “apoptosis in tumor (cleaved caspase-3 IHC)” value (IGROV1 xenograft; IGROV1 xenograft) was “induced apoptosis in tumor” and the tumor growth (IGROV1 xenograft; IGROV1 xenograft, 20 or 40 mg/kg intraperitoneally, three weeks) was “significantly reduced tumor growth”. For the same compound, the “systemic toxicity (body weight, H&E staining of heart, liver, kidney and lung)” value (IGROV1 xenograft; mouse, in vivo) was “systemic toxicity or obvious side effects were not observed”, the “distribution of compound in live cells (DAHMI)” value (And-1 [2]) was “detected in nuclei” and the “cancer cell growth inhibition” value (NCI 60 tumor cell lines; 0.01-100 μM, 60 tumor cell lines) was “inhibited cancer cell growth in all 60 tumor cell lines in a dose dependent manner”. For the same compound, the mean growth percentage (NCI 60 tumor cell lines; one dose assay, 10 μM, against 60 tumor cell lines) was 1.84%.
